pIC50: −log10 of the molar value. Where “and” joins values, the source holds several entries; their conditions need not be identical. Equal entries are not always repeated. Where two headings read alike, the source gives them in different places.
Tests used:
human OGG1 enzyme [1] = target: T1, human OGG1 enzyme (Homo sapiens, UniProt O15527); experiment: Differential scanning fluorimetry (DSF) thermal shift assay; assay type: binding; set-up: ∆Tm (K): unit of the concentration uncertain
Experimental: The temperature was increased from 20 °C to 85 °C with 10 readings/degree. Tm values were calculated using an excel template and fitting to the Boltzmann equation in Prism v.6.07 (GraphPad Software).

human OGG1 enzyme [2] = target: T1, human OGG1 enzyme; experiment: OGG1 glycosylase activity assay (enzyme inhibition, APE1-coupled fluorescence); assay type: biochemical; conditions: for IC50: Table S2, virtual fragment screen hits, read-out: pIC50 (converted)
Experimental: “8” signifies 8-oxoA and “FAM” and “Dab” signify fluorescein and dabcyl (TriLink Biotech). Briefly, compounds dissolved in DMSO were dispensed using an Echo 550 (Labcyte), followed by transfer of enzyme and substrate solutions manually with a 16-channel pipette or with a Multidrop (Thermo Scientific). The plates were centrifuged, sealed and incubated at room temperature overnight (15 h) and read the following morning in an Hidex Sense plate reader (Hidex Oy) using a 485-nm filter with a bandwidth of 10 nm for excitation and a 535-nm filter with a bandwidth of 20 nm for emission.

[3] = 495 (unit uncertain) as printed in sheet footnote

T1 sequence (O15527 whole entry): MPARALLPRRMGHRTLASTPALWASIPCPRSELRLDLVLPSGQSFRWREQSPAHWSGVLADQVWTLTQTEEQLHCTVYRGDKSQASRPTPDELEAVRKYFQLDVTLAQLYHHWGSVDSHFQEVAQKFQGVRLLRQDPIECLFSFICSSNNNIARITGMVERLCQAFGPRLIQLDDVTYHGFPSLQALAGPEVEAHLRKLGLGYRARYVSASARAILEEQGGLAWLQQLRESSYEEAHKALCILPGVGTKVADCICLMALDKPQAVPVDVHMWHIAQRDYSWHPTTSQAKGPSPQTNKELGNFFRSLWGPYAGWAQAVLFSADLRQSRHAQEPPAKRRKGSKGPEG

SMILES	∆Tm (K) (human OGG1 enzyme [1]; 495 µM)	∆Tm (K) (human OGG1 enzyme [1]; 99 μM)	further results
CC1CC1CNC(=O)C1CCc2cccnc21 (stereo not drawn) [ZINC000341791847]	0.38 K		
Cc1csc(NC(=O)N2CC(C)C(O)C2)n1 (stereo not drawn) [ZINC000350512979]	0.07 K		
Cc1ccn2c(NC(=O)C3(Oc4ccc(Cl)cc4)CC3)nnc2c1 [ZINC000341519123]		0.37 K	
Cc1csc(Nc2ncnc3sccc23)n1 [ZINC000163077816]	-0.51 K		
Cc1ccc(NC(=O)Nc2c[nH]nc2C)s1 [ZINC000075413056]	0.35 K		
Cc1ccc(CNC(=O)Nc2cnn(C)c2C(F)(F)F)c(C)c1 [ZINC000000241283]		0.39 K	
CC(=O)Nc1nc(-c2ccc(Cl)cc2)n[nH]1 [ZINC000517746346]	-0.15 K		
CC1(C)CC(NC(=O)c2csc3cncn23)C1 [compound 4]	0.5 K		∆Tm (K) (human OGG1 enzyme [1]; [3]): 0.5 K; IC50 (human OGG1 enzyme [2]): > 100 µM
Cc1ccc(NC(=O)N2CC(O)(c3ccc(Cl)cc3)C2)s1 [ZINC000776423770]		-0.42 K	
CC1(C)CC1(C)NC(=O)c1cc2cccn2cn1 (stereo not drawn) [compound 2]	1.6 K and > 1 K		∆Tm (K) (human OGG1 enzyme [1]; [3]): 1.6 K; IC50 (human OGG1 enzyme [2]): > 100 µM
COc1ccc(F)cc1CNC(=O)c1cn[nH]c1 [ZINC000188683358]	-0.01 K		
O=C(NCc1cnn(-c2ccccc2)c1)c1cc(C2CC2)no1 [ZINC000045518705]		-0.07 K	
C[C](NC(=O)c1ccc(C)nc1)c1cnn(-c2ccc(F)cc2)c1C [ZINC000142711832]		-0.11 K	
Cc1csc(NC(=O)c2ccc(N)cc2)n1 [ZINC000005740683]	0.52 K		
O=C(NCc1nc(-c2ccccc2)no1)c1cn(-c2ccccc2)nn1 [ZINC000507023994]		-0.92 K	
O=C(Nc1noc2c1CCCC2)[C@H]1Cc2ccccc21 [compound 5]		4.1 ± 0.7 K	∆Tm (K) (human OGG1 enzyme [1]; 99 (unit uncertain) as printed in sheet footnote): 4.1 ± 0.7 K; ΔTm (human OGG1 enzyme [1]; concentration not given): 4.1 K; pIC50 (human OGG1 enzyme [2]; read-out: IC50): 4.24
CN1C(=O)Cc2cc(Nc3ncnc4c(F)cccc34)ccc21 [ZINC000350560229]		-0.01 K	

SMILES	∆Tm (K) (human OGG1 enzyme [1]; 495 µM)	∆Tm (K) (human OGG1 enzyme [1]; 99 μM)	further results
COc1ccc(C2(CNC(=O)c3ccc(F)s3)CCC2)cc1 [ZINC000572161337]		0.17 K	
Cc1cc(CNC(=O)c2c(O)cccc2F)[nH]n1 [ZINC000681276767]	0.01 K		
COCC(C)(O)C(=O)Nc1cnc2ccccn12 (stereo not drawn) [ZINC000618358369]	0.11 K		
CCc1ccc(C(=O)NC[C]2CS(=O)(=O)c3ccccc3O2)cc1 [ZINC001002782586]		-0.13 K	
O=C(NCC1([C](O)c2ccccc2)CC1)c1ccc(Cl)cc1 [ZINC000700852234]		-0.27 K	
O=C(NCc1ccccc1O)c1ccc(F)cc1 [ZINC000082283111]	0.67 K		
Cc1ccc(C(=O)NCc2nc(-c3cccnc3)no2)cc1C [ZINC001046413262]		-0.07 K	
Cc1n[nH]cc1CNC(=O)C(C)c1ccccc1 (stereo not drawn) [ZINC000182379077]	0.08 K		
Cc1conc1NC(=O)c1nc(Cl)cs1 [ZINC000789997344]	-0.03 K		
Cn1c(=O)n(C)c2cc(Nc3ncnc4ccccc34)ccc21 [ZINC000358521717]		0.43 K	
C=Cc1ccc(C(=O)NCc2cn(-c3ccccc3)nc2C)cc1 [ZINC000192206237]		0.83 K	
C[C](CNC(=O)c1cn(-c2ccccc2)nn1)Oc1ccc(C)cc1 [ZINC000080662795]		-0.11 K	
Cc1n[nH]cc1CNC(=O)C1Cc2ccccc21 (stereo not drawn) [ZINC000088452370]	0.26 K		
CCCC1CCCC1C(=O)NCc1c[nH]nc1C (stereo not drawn) [ZINC000294547394]	0.18 K		
Cc1n[nH]cc1CNC(=O)NC1(C)CC1(C)C (stereo not drawn) [ZINC000663691150]	0.01 K		
Cc1ccc(CNC(=O)c2ccc(F)nc2)cc1 [compound 3]	0.6 K		∆Tm (K) (human OGG1 enzyme [1]; [3]): 0.6 K; IC50 (human OGG1 enzyme [2]): > 100 µM

Reference: article PMC11836371, “Virtual fragment screening for DNA repair inhibitors in vast chemical space” (Nature Communications, 2025)
